pIC50: −log10 of the molar value.
system: MV-4-11; experiment: Oncology cell growth assay MV-4-11 (CellTiter Glo, 72 hours); type: cell-based; details: Homo sapiens, MV4-11, 72 h; MV-4-11 cell growth inhibitory activity, 3d
Excerpt: (§1) Published bromodomain inhibitors JQ1 and iBET 151 have shown activity in variety of cancer cells such leukemia and lymphoma, multiple myeloma cells, NUT midline carcinoma and glioblastoma cells (Dawson M A et al. 2011; Delmore J E 2011; Chen Z et al. 2013; Filippakopoulos P et al. 2010; Mertz J A et al. 2011; Ott C J et al. 2012). In this study, we test compounds in different cancer cell lines. MV-4-11 and MOLM-13 are AML cell lines harboring a MLL-AF4 and MLL-AF9 translocation, respectively. MM.1S is a multiple myeloma cell line. SK-N-AS, IMR-32 and SK-N-BE(2) are neuroblastoma cell lines. IMR-32 and SK-N-BE(2) cell lines harbor MYCN amplifications. MV-4-11, MM.1S, IMR-32, SK-N-AS and SK-N-BE(2) were obtained from ATCC (IL, USA) and MOLM-13 were purchased from DSMZ (Braunschweig, German). Cells are cultured as recommended by their sources. For growth inhibition studies 3000 cells are seeded in wells of a 96-well plate in 75 μL of culture media. After several hours, growth media containing compounds of formula (I) are added to the wells. Compound at a maximal concentration of 5 mM was serially diluted 1:3 for a total of 8 point titration with DMSO as a control. A 1 μL aliquot of each dilution point is added to 249 μL growth media and 75 μL is added to each well containing cells, providing 10 μM compound at the maximum concentration point. The final concentration of DMSO in all wells is 0.2%. Cells are incubated for 72 hours, and 25 μL of CellTiter Glo Reagent (Promega Ga., USA) is added to each well. Plates are shaken for approximately 10 minutes and chemiluminescent signal is read on Tecan microplate reader. The measured luminescence correlates directly with cell number.
(§2) All data is normalized to the mean of eight DMSO high control wells on each plate. A four parameter curve fit of the following formula was then applied: Y=a+(b−a)/(1+(x/c)^d) Where ‘a’ is the minimum, ‘b’ is the maximum, ‘c’ is the pIC50 and ‘d’ is the Hill slope. […] Myc Reporter Assay
The following table provides data indicating the BRD4 biochemical inhibitory activity and MV-4-11 cell growth inhibitory activity for exemplary compounds as described herein.

| Structure (SMILES) | IC50 |
| --- | --- |
| CCn1cc(-c2cn(S(=O)(=O)c3ccccc3)c3cc(-c4c(C)noc4C)cnc23)cn1 [P-0124, 4-[1-(benzenesulfonyl)-3-(1-ethylpyrazol-4-yl)pyrrolo[3,2-b]pyridin-6-yl]-3,5-dimethyl-isoxazole] | ≤ 1 µM |
| Cc1noc(C)c1-c1cnc2c(-c3cnn(C(F)F)c3)cn(S(=O)(=O)C3CCCC3)c2c1 [P-0133, 4-[1-cyclopentylsulfonyl-3-[1-(difluoromethyl)pyrazol-4-yl]pyrrolo [3,2-b]pyridin-6-yl]-3,5-dimethyl-isoxazole] | ≤ 1 µM |
| Cc1noc(C)c1-c1cnc2c(C#CCO)cn(S(=O)(=O)c3ccccc3)c2c1 [P-0155, 3-[1-(benzenesulfonyl)-6-(3,5-dimethylisoxazol-4-yl)pyrrolo[3,2-b]pyridin-3-yl]prop-2-yn-1-ol] | ≤ 1 µM |

system: bromodomain; experiment: Bromodomain cell assays of Example 40 (at least one of them); type: cell-based; details: in at least one of the bromodomain cell assays described in Example 40
Excerpt: as §1, §2
In MV-4-11 cells, BRD2, BRD3 and BRD4 bind to the promoter region of MYC and regulate its transcription (Dawson M A et al. 2011). The literature bromodomain inhibitor iBET 151 could disrupt BRD4 recruitment to the MYC promoter and subsequently downregulate c-myc transcription (Dawson M A et al. 2011). Myc protein is a transcription factor that heterodimerizes with an obligatory partner Max and regulates the transcription of genes important for cell proliferation, differentiation, and apoptosis. This Myc reporter assay is used to monitor the inhibitory effect of compound of formula (I) on Myc dependent gene expression. Effective compounds could have potential therapeutic effects in Myc-driven tumors.
The MV-4-11 Myc reporter cell line is established by infecting MV-4-11 with VSV-g pseudotyped lentivirus expressing the firefly luciferase gene under the control of a minimal (m) CMV promoter and tandem repeats of the E-box transcriptional response element (TRE) (Qiagen IL, USA) and selecting cells in […] Puromycin.
The MV-4-11 Myc reporter cell line is maintained in Iscove's Modified Dulbecco's Medium containing 10% FBS, 1% PenStep and 2.5 μg/ml Puromycin. Cells are incubated at 37° C. in a humidified atmosphere with 5% CO2. 25,000 cells are seeded in 96-well plate in 50 μL of culture media. After several hours, growth media containing 2× compounds are added to the wells. Compound at a maximal concentration of 5 mM is serially diluted 1:3 for a total of 8 point titration. A 1 μl aliquot of each dilution point is added to 249 μl growth media and 50 μl is added to each well containing cells, providing 10 μM compound at the maximum concentration point. DMSO treated cells serve as a high control and 10 μM JQ1 treated cells serve as a low control. Cells are incubated for a further 24 hours and 25 μL of CellTiter-Fluo Reagent (Promega Ga., USA) is added to each well. Plates are shaken for approximately 2 minutes and incubated at 37° C. for 0.5 hour. […]

| Structure (SMILES) | pIC50 |
| --- | --- |
| CCc1[nH]c2ncc(-c3c(C)noc3C)cc2c1CC1CCC(F)(F)CC1 [P-0051, 4-[3-[(4,4-difluorocyclohexyl)methyl]-2-ethyl-1H-pyrrolo[2,3-b]pyridin-5-yl]-3,5-dimethyl-isoxazole] | > 5.00 |
| Cc1noc(C)c1-c1cnc2ccn(S(=O)(=O)N3CCCCC3)c2c1 [P-0067, 3,5-dimethyl-4-[1-(1-piperidylsulfonyl)pyrrolo [3,2-b]pyridin-6-yl] isoxazole] | > 5.00 |
| Cc1noc(C)c1-c1cnc2c(c1)c(C(O)C1CCC(F)(F)CC1)cn2C (centres unmarked) [P-0101, (4,4-difluorocyclohexyl)-[5-(3,5-dimethylisoxazol-4-yl)-1-methyl-pyrrolo[2,3-b]pyridin-3-yl]methanol] | > 5.00 |
| Cc1noc(C)c1-c1cnc2c(I)c(C(F)(F)F)[nH]c2c1 [P-0225, 4-[3-iodo-2-(trifluoromethyl)-1H-pyrrolo[3,2-b]pyridin-6-yl]-3,5-dimethyl-isoxazole] | > 5.00 |
| Cc1noc(C)c1-c1ccc2c(-c3cnn(C)c3)cn(Cc3ccccc3F)c2c1 [P-0226, 4-[1-[(2-fluorophenyl)methyl]-3-(1-methylpyrazol-4-yl)indol-6-yl]-3,5-dimethyl-isoxazole] | > 5.00 |
| Cc1noc(C)c1-c1ccc2c(-c3cnn(C)c3)cn(Cc3ccccc3Cl)c2c1 [P-0227, 4-[1-[(2-chlorophenyl)methyl]-3-(1-methylpyrazol-4-yl)indol-6-yl]-3,5-dimethyl-isoxazole] | > 5.00 |
| Cc1noc(C)c1-c1ccc2c(-c3cnn(C)c3)cn(Cc3ccccc3C(F)(F)F)c2c1 [P-0228, 3,5-dimethyl-4-[3-(1-methylpyrazol-4-yl)-1-[[2-(trifluoromethyl)phenyl]methyl]indol-6-yl]isoxazole] | > 5.00 |
| Cc1noc(C)c1-c1ccc2c(-c3cnn(C)c3)cn(Cc3c(F)cccc3F)c2c1 [P-0229, 4-[1-[(2,6-difluorophenyl)methyl]-3-(1-methylpyrazol-4-yl)indol-6-yl]-3,5-dimethyl-isoxazole] | > 5.00 |
| Cc1noc(C)c1-c1ccc2c(-c3cnn(C)c3)cn(C(C)c3ccccc3)c2c1 (centres unmarked) [P-0232, 3,5-dimethyl-4-[3-(1-methylpyrazol-4-yl)-1-(1-phenylethyl)indol-6-yl]isoxazole] | > 5.00 |
| [2H]C([2H])(F)C(c1ccccc1)n1cc(-c2cnn(C)c2)c2ncc(-c3c(C)noc3C)cc21 (centres unmarked) [P-0233, 4-[1-(2,2-dideuterio-2-fluoro-1-phenyl-ethyl)-3-(1-methylpyrazol-4-yl)pyrrolo[3,2-b]pyridin-6-yl]-3,5-dimethyl-isoxazole] | > 5.00 |
| Cc1noc(C)c1-c1cnc2c(I)cn(CC3(F)CCCCC3)c2c1 [P-0234, 4-[1-[(1-fluorocyclohexyl)methyl]-3-iodo-pyrrolo[3,2-b]pyridin-6-yl]-3,5-dimethyl-isoxazole] | > 5.00 |
| Cc1noc(C)c1-c1cnc2c(-c3cnn(C(F)F)c3)cn(CC3(F)CCCCC3)c2c1 [P-0235, 4-[3-[1-(difluoromethyl)pyrazol-4-yl]-1-[(1-fluorocyclohexyl)methyl]pyrrolo[3,2-b]pyridin-6-yl]-3,5-dimethyl-isoxazole] | > 5.00 |
| Cc1noc(C)c1-c1cnc2c(-c3cnn(C4CC4)c3)cn(CC3(F)CCCCC3)c2c1 [P-0236, 4-[3-(1-cyclopropylpyrazol-4-yl)-1-[(1-fluorocyclohexyl)methyl]pyrrolo[3,2-b]pyridin-6-yl]-3,5-dimethyl-isoxazole] | > 5.00 |
| Cc1noc(C)c1-c1cnc2c(-c3cnn(CC(F)(F)F)c3)cn(CC3(F)CCCCC3)c2c1 [P-0237, 4-[1-[(1-fluorocyclohexyl)methyl]-3-[1-(2,2,2-trifluoroethyl)pyrazol-4-yl]pyrrolo[3,2-b]pyridin-6-yl]-3,5-dimethyl-isoxazole] | > 5.00 |
| COCCn1cc(-c2cn(CC3(F)CCCCC3)c3cc(-c4c(C)noc4C)cnc23)cn1 [P-0238, 4-[1-[(1-fluorocyclohexyl)methyl]-3-[1-(2-methoxyethyl)pyrazol-4-yl]pyrrolo[3,2-b]pyridin-6-yl]-3,5-dimethyl-isoxazole] | > 5.00 |
| Cc1noc(C)c1-c1cnc2c(-c3cn[nH]c3)cn(CC3(F)CCCCC3)c2c1 [P-0239, 4-[1-[(1-fluorocyclohexyl)methyl]-3-(1H-pyrazol-4-yl)pyrrolo[3,2-b]pyridin-6-yl]-3,5-dimethyl-isoxazole] | > 5.00 |
| Cc1noc(C)c1-c1cnc2c(I)cn(CC3(F)CCC4(CC3)OCCO4)c2c1 [P-0240, 4-[1-[(8-fluoro-1,4-dioxaspiro[4.5]decan-8-yl)methyl]-3-iodo-pyrrolo[3,2-b]pyridin-6-yl]-3,5-dimethyl-isoxazole] | > 5.00 |
| Cc1noc(C)c1-c1cnc2c(-c3cnn(C(F)F)c3)cn(CC3(F)CCC4(CC3)OCCO4)c2c1 [P-0241, 4-[3-[1-(difluoromethyl)pyrazol-4-yl]-1-[(8-fluoro-1,4-dioxaspiro[4.5]decan-8-yl)methyl]pyrrolo[3,2-b]pyridin-6-yl]-3,5-dimethyl-isoxazole] | > 5.00 |
| Cc1noc(C)c1-c1cnc2c(-c3cnn(C(F)F)c3)cn(CC3(F)CCC(=O)CC3)c2c1 [P-0242, 4-[[3-[1-(difluoromethyl)pyrazol-4-yl]-6-(3,5-dimethylisoxazol-4-yl)pyrrolo[3,2-b]pyridin-1-yl]methyl]-4-fluoro-cyclohexanone] | > 5.00 |
| Cc1noc(C)c1-c1cnc2c(-c3cnn(C(F)F)c3)cn(CC3(F)CCC(F)(F)CC3)c2c1 [P-0243, 4-[3-[1-(difluoromethyl)pyrazol-4-yl]-1-[(1,4,4-trifluorocyclohexyl)methyl]pyrrolo[3,2-b]pyridin-6-yl]-3,5-dimethyl-isoxazole] | > 5.00 |
| Cc1noc(C)c1-c1cnc2c(-c3cnn(C(F)F)c3)cn(CC3(F)CC=C(F)CC3)c2c1 (centres unmarked) [P-0244, 4-[1-[(1,4-difluorocyclohex-3-en-1-yl)methyl]-3-[1-(difluoromethyl)pyrazol-4-yl]pyrrolo[3,2-b]pyridin-6-yl]-3,5-dimethyl-isoxazole] | > 5.00 |
| Cc1noc(C)c1-c1cnc2c(I)c(C(F)(F)F)n(C(C)c3ccccc3)c2c1 (centres unmarked) [P-0245, 4-[3-iodo-1-(1-phenylethyl)-2-(trifluoromethyl)pyrrolo[3,2-b]pyridin-6-yl]-3,5-dimethyl-isoxazole] | > 5.00 |
| Cc1noc(C)c1-c1cnc2[nH]ccc2c1 [P-0246, 3,5-dimethyl-4-(1H-pyrrolo[2,3-b]pyridin-5-yl)isoxazole] | > 5.00 |
